Read-outs that look alike come from different tables or passages of the source.
Legend:
[1] = system: HBV virus in HepG2.2.15 cells; assay: In vitro anti-HBV effects (HBV DNA, real time PCR); format: cell-based; settings: 10 μM
Method: HepAD38 cells were cultured with DMEM in 48-well plate at 1 × 10^5 cells/well for 24 h, then treated with 10 μM of each compound for 72 h. After 4 days, the cells were washed with precooled PBS for 2 times. HBV progeny DNA of HepAD38 cells were extracted using QIAamp DNA Blood Mini kit (Biomiga) according to the manufacturer's instruction. Total DNA was reversely transcribed using PrimeScript RT reagent Kit (Takara, Dalian, China). PCR amplification was performed on an StepOne Plus real time PCR system (Applied Biosystems, Foster City, CA) using the SYBR Green Master Mix (Applied Biosystems, Foster City, CA). All experiments were performed in triplicate, and the relative levels of assayed HBV DNA were calculated with the delta–delta CT method using lamivudine as a positive control, and normalized to non-treated control. […]
8. Assay for in vitro anti-HBV effects
HepG2. 2. 15 cells were cultured with DMEM in 48-well plate at 1×10^5 cells/well for 24 h, then treated with 10 µM of compounds for 72 h. At d 4, these cells were washed 2 times with precooled PBS, and treated with 10 µM of compounds for 72 h.
HBV progeny DNA of HepG2. 2. 15 cells were extracted using QIAamp DNA Blood Mini kit (Biomiga) according to the manufacturer's instruction. Then total DNA was reverse transcribed using PrimeScript RT reagent Kit (Takara, Dalian, China). The primers were designed and synthesized by Takara, and the sequences of the primers […]
PCR amplification was performed on an StepOne Plus real time PCR system (Applied Biosystems, Foster City, CA) using the SYBR Green Master Mix (Applied Biosystems, Foster City, CA). All experiments were performed in triplicate, and the relative levels of assayed HBV DNA were calculated with the […]
delta‒delta CT method using lamivudine expressions as positive control, and normalized to non-treated control. […]
(Takara, Dalian, China). The primers were designed and synthesized by Takara, the […]
performed on an StepOne Plus real time PCR system (Applied Biosystems, Foster City, CA) using the SYBR Green Master Mix (Applied Biosystems, Foster City, CA). […]

[2] = system: NO production in LPS-induced RAW 264.7 macrophages; assay: Inhibition of LPS induced NO production in RAW264.7 macrophages (Griess reagent); format: cell-based, mouse
Method: All compounds were assayed by measuring the inhibitory effects on NO production induced by LPS in mouse macrophage RAW 264.7 cells. The RAW 264.7 cells were seeded in each well of a 96-well plate at a concentration of 5 × 10^5 cells/ml in DMEM medium containing 10% fetal bovine serum, 2 mmol/l glutamine, 100 U/ml penicillin, and 100 μg/ml streptomycin. After incubation at 37°C in a humidified atmosphere of 5% CO2 air for 12 h, cells were treated with LPS (1 μg/ml) and compounds ([…], and compound was dissolved in DMSO to dilute until the final DMSO concentration <0.1%, v/v), then incubation for 24 h at 37°C. NO production was determined by measuring the quantity of nitrite in the culture medium by the Griess reagent. Aminoguanidine was selected as a positive control. A 50 μl of the supernatant of culture medium was mixed with 100 μl of the Griess reagent. Using nitrite to generate a standard curve, nitrite production was measured by a microplate reader at 540 nm. Cell viability was examined by the MTT method (Wu et al., [2016]). The compounds with inhibitory rate more than 50% at a dose of 50 μg/ml were further detected in the gradient concentrations to calculate IC50 values. […]
(§1) 7. Assay for inhibition toward nitric oxide production in RAW264.7 macrophages The experiment was conducted according to a literature procedure.1 Murine monocytic RAW264.7 cells grown in 96-well cell culture plates (2 × 10^5 cells/well) and pretreated with serial concentrations of the compounds 1‒8 for 30 min, followed by stimulation with LPS (1 μg/mL) under a humidified atmosphere with 5% CO2 at 37°C. After 24 h, the NO production of the supernatant was determined by adding the 100 μL of Griess reagent. Subsequently, the MTT
(§2) [3-(4,5-dimethylthiazol-2-yl)-2,5-diphenyltetrazolium bromide] reduction2 was used to evaluate the cell viability, and results were expressed as the mean value of triplicate determinations. The positive control was aminoguanidine.2 […]

RAW264.7 macrophages = assay: Cell viability of RAW264.7 macrophages (MTT method); format: cell-based, mouse; settings: RAW264.7, MTT; Table 3; read-out: CC50 (μM) Cytotoxicity
Method: as §1, §2

filaggrin = assay: Expression of filaggrin in HaCaT cells (qRT-PCR); format: cell-based; settings: HaCaT cells, 20, 10, 5 μM, 72 h, dose dependent
Method: (§3) HaCaT cells were cultured with DMEM in 6-well plate at 1 × 10^5 cells/well for 24 h, then treated with 20, 10, 5 μM of compounds 1–7 for 72 h. Total RNA of HaCaT cells were extracted using RNA Miniprep kit (Biomiga) according to the manufacturer's instruction. Then total RNA was reverse transcribed using PrimeScript RT reagent Kit (Takara, Dalian, China). PCR amplification was performed on an StepOne Plus real time PCR system (Applied Biosystems, Foster City, CA) using the SYBR Green Master Mix (Applied Biosystems, Foster City, CA). All experiments were performed in triplicate, and the relative levels of assayed mRNAs were calculated with the delta–delta CT method using ACTIN expressions as endogenous control, and normalized to non-treated control. […]
(§4) delta‒delta CT method using lamivudine expressions as positive control, and normalized to non-treated control.
(§5) 9. Assay for protective effects on skin barrier functions in in vitro
(§6) HaCaT cells were cultured with DMEM in 6-well plate at 1×10^5 cells/well for 24 h, then treated with 20, 10, 5 µM of compounds 1‒8 for 72 h. […]
(§7) All experiments were performed in triplicate, and the relative levels of assayed mRNAs were calculated with the delta‒delta CT method using ACTIN expressions as endogenous control, and normalized to non-treated control.

caspase-14 = assay: Expression of caspase-14 in HaCaT cells (qRT-PCR); format: cell-based; settings: HaCaT cells, 20, 10, 5 μM, 72 h, dose dependent
Method: as §3, §4, §5, §6, §7

HaCaT cells = assay: Protection against UVB-induced cell damage in HaCaT cells (MTT assay); format: cell-based; settings: Homo sapiens, HaCaT, light or radiation study, 24 h, read-out: cell viability after UVB irradiation
Method: HaCaT cells were seeded at 5 × 10^5 cells per well in 6-well plates and incubated under starvation conditions for 24 h using serum-free MEM. HaCaT cells were exposed to UVB irradiation (UVB lamp: SUV-1000, Sigma-China) at a dose of 30 mJ/cm^2. After UVB irradiation, DMEM medium containing 1 (20 μM) or epigallocatechin gallate (20 μM) was added and the cells were incubated for 24 h, and then the MTT assay was performed.

[3] = Cell viability of RAW264.7 macrophages (MTT method); format: cell-based, mouse; settings: mouse
Method: as §1, §2

[4] = Cytotoxic activity toward tumor cell line SMMC7721; format: cell-based; settings: human, SMMC7721 tumor cells
[5] = Cytotoxic activity toward tumor cell line A549; format: cell-based; settings: human, A549 tumor cells
[6] = Cytotoxic activity toward tumor cell line U937; format: cell-based; settings: human, U937 tumor cells

| Structure (SMILES) | inhibitory rate of DNA expression of the HBV virus [1] [%] | NO inhibition % (50 μM) ([2]; 50 μM, LPS 1 μg/ml, 24 h) [%] | IC50 ([2]; LPS 1 μg/ml, 24 h, Table 3, read-out: IC50 (μM) NO) [µM] | inhibition toward NO production (in words) ([2]; LPS-induced RAW 264.7 macrophages) | CC50 (RAW264.7 macrophages) [µM] | IC50 ([2]; Mus musculus, RAW264.7, read-out: IC50 (M), 50% inhibitory concentration) [µM] | expression of filaggrin (filaggrin) | expression of caspase-14 (caspase-14) | viability at 20 µM (HaCaT cells) [%] | CC50 at 24 h ([3]; RAW264.7, MTT, Table 3, read-out: CC50 (μM) Cytotoxicity) [µM] | CC50 at 24 h ([3]; Table S9 of the supplement, read-out: CC50 (M), 50% cytotoxic concentration) [µM] | IC50 [4] [µM] | IC50 [5] [µM] | IC50 [6] [µM] |
| --- | --- | --- | --- | --- | --- | --- | --- | --- | --- | --- | --- | --- | --- | --- |
| C=C1C2(C)CC3C4(C)C=CC(=O)OC(C)(C)C4CCC3(C)C13C(=O)OC(C)C3(O)C2=O [Compound 3, (5aS, 5bS, 7R, 8aR, 9R, 11aR, 11bS, 13aS)-8a-hydroxy-1,1,5a, 7,9,11b-hexamethyl-14-methylene-5a,5b,6,7,8a,9,11b,12,13,13a-decahydro-1H,11H-7, 11a-methanofuro[3″,4″:3′,4′]cyclohepta[1′,2′:3,4]benzo[1,2-c]oxepine-3,8,11-trione] | 25 | 65 | 33.8 ± 3.13 | moderate inhibition | > 100 | – | – | – | – | – | – | – | – | – |
| C=C1[C@@]2(C)C[C@H]3[C@]4(C)[C@H](O)[C@@H]5C[C@@](C)(OC5=O)[C@H]4CC[C@]3(C)[C@]1(C(=O)OC)C(=O)[C@@](C)(O)C2=O [Compound 1, methyl (1R, 2S, 5R, 5aS, 7aS, 8R, 10S, 12R, 13aR, 13bS)-1, 10-dihydroxy-5,7a,10,12,13b-pentamethyl-14-methylene-3,9,11-trioxotetradecahydro-2,5:8,12-dimethanocycloocta[3,4]benzo[1,2-c]oxepine-8(5H)-carboxylate] | – | – | – | – | – | > 50 | significantly stimulated | significantly stimulated | 77 | > 100 | > 50 | > 10 | > 10 | > 10 |

Reference: publication PMC6072878, “Brasilianoids A–F, New Meroterpenoids From the Sponge-Associated Fungus Penicillium brasilianum” (Frontiers in Chemistry, 2018)
